Reference: publication PMC9599461, “Stereoselectivity in the Membrane Transport of Phenylethylamine Derivatives by Human Monoamine Transporters and Organic Cation Transporters 1, 2, and 3” (Biomolecules, 2022)
Where two headings read alike, the source gives them in different places.

What was measured:
OCT1 = molecular target: T1, OCT1 (Homo sapiens, UniProt O15245); assay: Stereoselective uptake into OCT1-overexpressing HEK293 cells; conditions: for Saturable net uptake: result in words; for Clint ± SEM: quotient of vmax over Km; for selectivity ratio at 2 min: human;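 on all read-outs here: enantiomers quantified inside cells by chiral HPLC-MS/MS, uptake normalized to total protein from bicinchoninic acid assay, substrates applied in HBSS+ buffer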
T1 sequence (O15245 1-554): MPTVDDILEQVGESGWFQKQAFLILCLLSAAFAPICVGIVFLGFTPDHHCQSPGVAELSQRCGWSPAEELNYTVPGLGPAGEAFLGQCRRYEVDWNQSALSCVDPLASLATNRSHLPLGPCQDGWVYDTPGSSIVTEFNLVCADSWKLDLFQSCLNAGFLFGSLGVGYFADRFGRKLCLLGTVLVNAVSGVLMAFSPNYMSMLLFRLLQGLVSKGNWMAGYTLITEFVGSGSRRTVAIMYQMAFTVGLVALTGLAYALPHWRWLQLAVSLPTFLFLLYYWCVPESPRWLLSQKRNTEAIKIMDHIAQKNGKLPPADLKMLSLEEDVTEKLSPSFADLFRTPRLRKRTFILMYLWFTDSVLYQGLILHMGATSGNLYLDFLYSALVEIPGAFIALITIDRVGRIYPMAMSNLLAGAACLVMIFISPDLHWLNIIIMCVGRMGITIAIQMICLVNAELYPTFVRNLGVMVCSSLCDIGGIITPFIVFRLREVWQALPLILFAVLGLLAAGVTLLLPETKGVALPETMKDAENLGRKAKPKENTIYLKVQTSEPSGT
Method: (§1) All transport experiments were carried out in HEK293 cells stably overexpressing human MATs or OCTs. […] All cells were regularly cultivated in DMEM supplemented with 10% (v/v) FCS, penicillin (100 U/mL) and streptomycin (100 μg/mL)and kept in culture for no longer than 30 passages.
(§2) For the uptake experiments, 300,000 cells were plated in poly-D-lysine precoated 24-well plates 48 h ahead of the transport experiment. On the day of experiment, cells were initially washed once with 37 °C pre-warmed HBSS+ (Hanks buffered salt solution supplemented with 10 mM HEPES) and subsequently incubated with the substrates dissolved in pre-warmed HBSS+ for exactly two minutes. Incubation was stopped by adding ice-cold HBSS+ followed by two washing steps. After this, cells were lysed with 80% acetonitrile containing 10 ng/mL milnacipran as internal standard for high-performance liquid chromatography coupled to tandem mass spectrometry (HPLC-MS/MS) analysis. For every experiment, two additional wells per cell line were lysed using RIPA buffer for protein quantification. Total protein was quantified using the bicinchoninic acid assay [42]. This was later used for normalization of the uptake data.
Intracellularly accumulated test substances were quantified by HPLC-MS/MS analysis using a Shimadzu Nexera HPLC system with a SIL-30AC autosampler, a CTO-20AC column oven, a LC-30AD pump, and a CBM-20A controller (Shimadzu, Kyoto, Japan). Stereoselective chromatography was carried out on a [sequence] CBH HPLC column (100 × 3 mm inner dimension with 5 μM particle size; Sigma-Aldrich, Darmstadt, Germany) with a corresponding 10 × 3 mm guard column. Reversed phased chromatography was carried out using an ammonium acetate (NH4Ac) buffered aqueous mobile phase with isopropyl alcohol (IPA) as organic solvent. […] The order of elution of the enantiomers was obtained from available reference literature [43] or by applying enantiopure reference compounds to the chiral HPLC. […] Given the structural similarity of the investigated substances and the fact that separation was performed on the same column with almost identical mobile phases, we assume that this order of elution for our compound set is always the (R)- before the (S)-enantiomer.
(§3) Detection was performed with an API 4000 tandem mass spectrometer (AB SCIEX, Darmstadt, Germany) operating in multiple-reaction-monitoring mode. Quantification was performed using the Analyst 1.6.2 software (AB SCIEX, Darmstadt, Germany) and quantified by comparison to standard curves with known concentrations.
(§4) All uptake data were normalized to protein content to account for variation in the number of seeded sells. Transporter-mediated net uptake was calculated by subtracting uptake into empty vector-transfected control cells from uptake into transporter-transfected cells. Kinetic parameters were then determined after non-linear regression following the Michaelis–Menten equation (v = vmax × [S]/(Km + [S])) using GraphPad Prism (Version 5.01 for Windows, GraphPad Software, La Jolla, CA, USA). Vmax refers to the maximum transport velocity and Km is defined as the substance concentration required to reach half of vmax. The intrinsic clearance Clint was calculated as the quotient of vmax over Km.

SERT [1] = molecular target: T2, SERT (Homo sapiens, UniProt P31645); assay: Stereoselective uptake into SERT-overexpressing HEK293 cells; conditions: for Saturable net uptake: result in words; for Clint ± SEM: quotient of vmax over Km;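 on all read-outs here: uptake into HEK293 cells stably expressing human SERT over 2 min, enantiomers measured in cell lysate by chiral HPLC-MS/MS, normalized to total protein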
Method: as §1, §2
(§5) Intracellularly accumulated test substances were quantified by HPLC-MS/MS analysis using a Shimadzu Nexera HPLC system with a SIL-30AC autosampler, a CTO-20AC column oven, a LC-30AD pump, and a CBM-20A controller (Shimadzu, Kyoto, Japan). […] CBH HPLC column (100 × 3 mm inner dimension with 5 μM particle size; Sigma-Aldrich, Darmstadt, Germany) with a corresponding 10 × 3 mm guard column. Reversed phased chromatography was carried out using an ammonium acetate (NH4Ac) buffered aqueous mobile phase with isopropyl alcohol (IPA) as organic solvent. […] The order of elution of the enantiomers was obtained from available reference literature [43] or by applying enantiopure reference compounds to the chiral HPLC.
as §3
(§6) All uptake data were normalized to protein content to account for variation in the number of seeded sells. Transporter-mediated net uptake was calculated by subtracting uptake into empty vector-transfected control cells from uptake into transporter-transfected cells. […] Vmax refers to the maximum transport velocity and Km is defined as the substance concentration required to reach half of vmax. The intrinsic clearance Clint was calculated as the quotient of vmax over Km.

DAT = DAT (Homo sapiens, UniProt Q01959); assay: Stereoselective uptake into DAT-overexpressing HEK293 cells; conditions: for Saturable net uptake / Clint ± SEM / Stereoselectivity Vmax / Stereoselectivity Km: DAT; for Saturable net uptake: result in words; for Clint ± SEM: quotient of vmax over Km; for Stereoselectivity Vmax / Stereoselectivity Km: ratio between enantiomers; for Stereoselectivity Vmax: given as for (R) or for 1; for selectivity ratio at 2 min: human;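 on all read-outs here: intracellular accumulation measured by chiral HPLC-MS/MS in stably transfected HEK293 cells, normalized to total protein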
OCT2 = molecular target: T3, OCT2 (Homo sapiens, UniProt O15244); assay: Stereoselective uptake into OCT2 (wild-type)-overexpressing HEK293 cells; conditions: OCT2; for Clint ± SEM: quotient of vmax over Km; for selectivity ratio at 2 min: human, ratio between enantiomers
T3 sequence (O15244 1-555 S270A): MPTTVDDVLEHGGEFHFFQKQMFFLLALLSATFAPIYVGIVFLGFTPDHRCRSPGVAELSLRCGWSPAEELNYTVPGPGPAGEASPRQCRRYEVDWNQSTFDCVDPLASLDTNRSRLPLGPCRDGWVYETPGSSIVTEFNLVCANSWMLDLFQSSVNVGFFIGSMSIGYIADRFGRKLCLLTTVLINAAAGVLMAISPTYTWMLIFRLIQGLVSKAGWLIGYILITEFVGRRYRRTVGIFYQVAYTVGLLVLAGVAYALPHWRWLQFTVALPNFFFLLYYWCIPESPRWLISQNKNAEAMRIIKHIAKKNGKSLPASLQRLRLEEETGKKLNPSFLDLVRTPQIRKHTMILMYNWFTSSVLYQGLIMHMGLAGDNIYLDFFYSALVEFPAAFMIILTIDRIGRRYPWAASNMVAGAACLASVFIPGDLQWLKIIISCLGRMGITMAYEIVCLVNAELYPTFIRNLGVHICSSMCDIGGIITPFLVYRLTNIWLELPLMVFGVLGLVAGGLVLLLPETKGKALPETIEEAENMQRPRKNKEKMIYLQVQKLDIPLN

NET = NET (Homo sapiens, UniProt P23975); assay: Stereoselective uptake into NET-overexpressing HEK293 cells; conditions: for Saturable net uptake: result in words; for Clint ± SEM: quotient of vmax over Km; for Stereoselectivity Vmax: given as for (R) or for 1; for selectivity ratio at 2 min: human;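 on all read-outs here: intracellular enantiomers quantified in cell lysates by chiral HPLC-MS/MS after a 2 min substrate incubation, with uptake normalized to total cellular protein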
[2] = tested on: OCT2 wild-type versus A270S variant; assay: in vitro; conditions: human, Transporter selectivity, OCT2 wild-type versus A270S, 100 μM racemic substance, two minutes
Method: as §1, §2
(§7) Intracellularly accumulated test substances were quantified by HPLC-MS/MS analysis using a Shimadzu Nexera HPLC system with a SIL-30AC autosampler, a CTO-20AC column oven, a LC-30AD pump, and a CBM-20A controller (Shimadzu, Kyoto, Japan). Stereoselective chromatography was carried out on a [sequence] CBH HPLC column (100 × 3 mm inner dimension with 5 μM particle size; Sigma-Aldrich, Darmstadt, Germany) with a corresponding 10 × 3 mm guard column. Reversed phased chromatography was carried out using an ammonium acetate (NH4Ac) buffered aqueous mobile phase with isopropyl alcohol (IPA) as organic solvent. […] The order of elution of the enantiomers was obtained from available reference literature [43] or by applying enantiopure reference compounds to the chiral HPLC. […] However, in every other case where the order of elution was available, the (R)-enantiomer eluted first. Given the structural similarity of the investigated substances and the fact that separation was performed on the same column with almost identical mobile phases, we assume that this order of elution for our compound set is always the (R)- before the (S)-enantiomer.
as §3, §4
(§8) HEK293 cells stably overexpressing wild-type or mutant OCT2 were incubated with 100 μM racemic substance for two minutes.

OCT3 = molecular target: T4, OCT3 (Homo sapiens, UniProt O75751); assay: Stereoselective uptake into OCT3-overexpressing HEK293 cells; conditions: for Saturable net uptake / Clint ± SEM / Stereoselectivity Vmax / Stereoselectivity Km: OCT3; for Saturable net uptake: result in words; for Clint ± SEM: quotient of vmax over Km; for Stereoselectivity Vmax / Stereoselectivity Km: ratio between enantiomers; for Stereoselectivity Vmax: given as for (R) or for 1; for Stereoselectivity Km: given as for (R) or for 1 (first-eluting); for selectivity ratio at 2 min: human;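 on all read-outs here: intracellular accumulation in HEK293 cells measured by chiral HPLC-MS/MS after a 2 min substrate exposure at 37 °C, uptake normalized to total protein (bicinchoninic acid assay)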
T4 sequence (O75751 1-556): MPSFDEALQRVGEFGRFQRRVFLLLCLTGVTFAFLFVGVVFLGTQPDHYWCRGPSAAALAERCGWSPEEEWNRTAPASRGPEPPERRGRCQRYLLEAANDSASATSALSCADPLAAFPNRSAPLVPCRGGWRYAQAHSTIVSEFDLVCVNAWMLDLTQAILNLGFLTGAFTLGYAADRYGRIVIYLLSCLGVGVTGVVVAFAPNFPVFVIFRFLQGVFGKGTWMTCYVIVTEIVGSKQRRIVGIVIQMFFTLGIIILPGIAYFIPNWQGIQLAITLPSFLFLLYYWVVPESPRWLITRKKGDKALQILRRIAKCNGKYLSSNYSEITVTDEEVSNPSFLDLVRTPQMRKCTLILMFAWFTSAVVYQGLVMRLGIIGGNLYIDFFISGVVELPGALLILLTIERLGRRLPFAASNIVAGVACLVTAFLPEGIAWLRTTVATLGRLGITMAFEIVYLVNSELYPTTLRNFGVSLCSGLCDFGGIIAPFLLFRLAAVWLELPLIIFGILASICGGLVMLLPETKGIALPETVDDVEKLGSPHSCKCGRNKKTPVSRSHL

SERT [3] = molecular target: T2, SERT; assay: in vitro
Method: as §1, §2, §5, §3, §6

OCT2 (wild-type) = molecular target: T5, OCT2 (wild-type) (Homo sapiens, UniProt O15244); assay: Stereoselective uptake into OCT2 (wild-type)-overexpressing HEK293 cells; conditions: human, Stereoselectivity OCT2_WT, 100 μM racemic substance, two minutes; uptake ratio of enantiomers, given as for (R)
T5 sequence (O15244 1-555 S270A): T3 sequence (O15244 1-555 S270A)

OCT2 A270S variant = assay: in vitro; conditions: human, Stereoselectivity OCT2_A270S, 100 μM racemic substance, two minutes, uptake ratio of enantiomers
Method: as §1, §2, §7, §3, §4, §8

[4] = Stereoselectivity Km, OCT1, ratio between enantiomers, given as for (S) or for 2 (second-eluting)
[5] = Stereoselectivity Vmax, OCT1, ratio between enantiomers, given as for (R) or for 1
[6] = Stereoselectivity ClInt, given as for (S) or for 2
[7] = Stereoselectivity Km, given as for (R) or for 1 (first-eluting)
[8] = Stereoselectivity Vmax, given as for (R) or for 1

NET, sequence (P23975 whole entry): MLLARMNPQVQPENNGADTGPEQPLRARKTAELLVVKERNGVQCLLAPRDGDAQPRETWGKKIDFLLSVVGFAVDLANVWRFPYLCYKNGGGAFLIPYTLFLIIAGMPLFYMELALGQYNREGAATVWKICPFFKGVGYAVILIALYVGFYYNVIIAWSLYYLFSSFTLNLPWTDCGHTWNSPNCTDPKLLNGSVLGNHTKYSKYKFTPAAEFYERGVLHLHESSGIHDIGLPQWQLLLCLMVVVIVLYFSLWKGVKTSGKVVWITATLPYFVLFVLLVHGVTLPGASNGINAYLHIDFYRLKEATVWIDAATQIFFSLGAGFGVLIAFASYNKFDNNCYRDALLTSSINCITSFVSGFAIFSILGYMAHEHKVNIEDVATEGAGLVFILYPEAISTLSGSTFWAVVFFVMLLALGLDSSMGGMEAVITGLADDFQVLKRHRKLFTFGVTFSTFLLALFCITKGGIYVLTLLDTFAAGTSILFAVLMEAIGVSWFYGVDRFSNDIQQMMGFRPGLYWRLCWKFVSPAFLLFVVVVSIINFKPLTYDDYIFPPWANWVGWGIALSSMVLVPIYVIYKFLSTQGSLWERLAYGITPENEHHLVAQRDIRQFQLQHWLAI
DAT, sequence (Q01959 whole entry): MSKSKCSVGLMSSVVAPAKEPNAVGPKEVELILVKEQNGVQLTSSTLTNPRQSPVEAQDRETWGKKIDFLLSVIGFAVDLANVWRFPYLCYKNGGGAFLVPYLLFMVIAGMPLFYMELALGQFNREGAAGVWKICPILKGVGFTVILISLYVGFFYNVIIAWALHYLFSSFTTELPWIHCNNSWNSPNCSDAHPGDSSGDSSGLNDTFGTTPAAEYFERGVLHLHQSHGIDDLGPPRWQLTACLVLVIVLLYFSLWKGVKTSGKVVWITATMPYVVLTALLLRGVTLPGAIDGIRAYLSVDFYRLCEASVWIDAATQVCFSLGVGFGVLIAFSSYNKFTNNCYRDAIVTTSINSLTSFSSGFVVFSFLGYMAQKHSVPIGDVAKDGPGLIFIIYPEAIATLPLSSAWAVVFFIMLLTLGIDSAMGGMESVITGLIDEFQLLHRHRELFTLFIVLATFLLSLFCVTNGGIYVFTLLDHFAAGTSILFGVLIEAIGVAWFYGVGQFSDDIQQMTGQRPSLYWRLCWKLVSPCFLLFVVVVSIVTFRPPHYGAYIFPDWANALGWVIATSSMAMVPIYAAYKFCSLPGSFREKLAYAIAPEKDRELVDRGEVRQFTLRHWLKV
T2 sequence (P31645 whole entry): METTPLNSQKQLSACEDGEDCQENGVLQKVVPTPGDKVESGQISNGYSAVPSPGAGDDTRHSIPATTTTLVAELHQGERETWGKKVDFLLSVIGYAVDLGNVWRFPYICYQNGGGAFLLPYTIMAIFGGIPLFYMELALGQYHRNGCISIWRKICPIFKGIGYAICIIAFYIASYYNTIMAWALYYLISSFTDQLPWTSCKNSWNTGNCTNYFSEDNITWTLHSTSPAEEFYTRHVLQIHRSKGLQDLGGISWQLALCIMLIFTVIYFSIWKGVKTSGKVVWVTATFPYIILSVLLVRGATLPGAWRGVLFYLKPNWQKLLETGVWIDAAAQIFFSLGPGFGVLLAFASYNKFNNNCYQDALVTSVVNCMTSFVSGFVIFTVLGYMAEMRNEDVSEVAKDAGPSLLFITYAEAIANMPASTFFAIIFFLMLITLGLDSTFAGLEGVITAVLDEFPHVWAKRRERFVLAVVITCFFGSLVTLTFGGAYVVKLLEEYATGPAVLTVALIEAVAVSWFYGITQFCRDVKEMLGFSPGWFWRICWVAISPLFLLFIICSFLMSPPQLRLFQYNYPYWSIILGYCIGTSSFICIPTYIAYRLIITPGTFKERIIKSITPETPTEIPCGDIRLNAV

In the case of CNCC(O)c1ccccc1 (centres unmarked) [Halostachine-2, Halostachine], the Saturable net uptake (OCT1; OCT1) was “No saturable net uptake”, the Saturable net uptake (SERT [1]; SERT) was “No saturable net uptake” and the Saturable net uptake (DAT) was “No saturable net uptake”. The “Clint ± SEM” value (OCT2) was 13.6 mL × g Protein^−1 × min^−1, the Saturable net uptake (NET; NET) was “No saturable net uptake” and the selectivity ratio at 2 min, 100 μM ([2]; given as for A270S) was 1.05. The Saturable net uptake (OCT3) was “No saturable net uptake”.
In the case of CNC[C@H](O)c1ccc(O)cc1 [(R)-Synephrine], the “Clint ± SEM” value (OCT1; OCT1) was 21.0 mL × g Protein^−1 × min^−1, the selectivity ratio at 2 min (OCT1; Stereoselectivity ClInt, OCT1, ratio between enantiomers, given as for (R) or for 1 (also 1.00-fold for 1/2)) was 1.73 and the selectivity ratio at 2 min (OCT1; [4]) was 1.28. The selectivity ratio at 2 min (OCT1; [5]) was 1.35, the “Clint ± SEM” value (SERT [1]; SERT) was 0.69 mL × g Protein^−1 × min^−1 and the “Stereoselectivity Vmax” value (SERT [1]; SERT, ratio between enantiomers, given as for (S) or for 2) was 1.35 fold. The “Stereoselectivity Km” value (SERT [1]; SERT, ratio between enantiomers, given as for (S) or for 2 (second-eluting)) was 1.52 fold, the “Clint ± SEM” value (DAT) was 23.1 mL × g Protein^−1 × min^−1 and the “Stereoselectivity Vmax” value (DAT) was 1.84 fold. For the same compound, the “Stereoselectivity Km” value (DAT; given as for (S) or for 2 (second-eluting)) was 1.21 fold, the selectivity ratio at 2 min (DAT) was 2.23 and the “Clint ± SEM” value (OCT2) was 24.6 mL × g Protein^−1 × min^−1. For the same compound, the selectivity ratio at 2 min (OCT2; [6]) was 1.01, the selectivity ratio at 2 min (OCT2; [7]) was 2.07 and the selectivity ratio at 2 min (OCT2; [8]) was 2.05. The “Clint ± SEM” value (NET; NET) was 37.3 mL × g Protein^−1 × min^−1, the “Stereoselectivity Vmax” value (NET; NET, ratio between enantiomers) was 1.80 fold and the “Stereoselectivity Km” value (NET; NET, ratio between enantiomers, given as for (S) or for 2 (second-eluting)) was 2.61 fold. For the same compound, the selectivity ratio at 2 min (NET) was 4.7, the selectivity ratio at 2 min, 100 μM ([2]; given as for WT) was 1.41 and the “Clint ± SEM” value (OCT3) was 26.3 mL × g Protein^−1 × min^−1. The “Stereoselectivity Vmax” value (OCT3) was 1.05 fold, the “Stereoselectivity Km” value (OCT3) was 1.11 fold and the selectivity ratio at 2 min (OCT3) was 1.06. For the same compound, the selectivity ratio (SERT [3]) was 1.13.
For COc1cc(C(O)CN)ccc1O (centres unmarked) [Normetanephrine], the selectivity ratio at 2 min, 100 μM (OCT2 (wild-type)) was 1.91 and the selectivity ratio at 2 min, 100 μM (OCT2 A270S variant; given as for (R)) was 1.7.
CNCC(O)c1ccc(O)c(OC)c1 (centres unmarked) [Metanephrine] was tested, and the selectivity ratio at 2 min, 100 μM (OCT2 (wild-type)) was 2.78 and the selectivity ratio at 2 min, 100 μM (OCT2 A270S variant; given as for (R)) was 2.26.
For CNC[C@H](O)c1cccc(O)c1 [(R)-Phenylephrine], the “Clint ± SEM” value (OCT1; OCT1) was 9.79 mL × g Protein^−1 × min^−1, the selectivity ratio at 2 min (OCT1; Stereoselectivity ClInt) was 1.11 and the selectivity ratio at 2 min (OCT1; [4]) was 1.02. The selectivity ratio at 2 min (OCT1; [5]) was 1.08, the “Stereoselectivity Km” value (SERT [1]) was 1.89 fold and the “Stereoselectivity Vmax” value (SERT [1]) was 1.49 fold. For the same compound, the “Vmax ± SEM” value (SERT [1]) was 356, the “Clint ± SEM” value (SERT [1]; SERT) was 17.2 mL × g Protein^−1 × min^−1 and the Km (SERT [1]; read-out: Km ± SEM, HEK293 cells overexpressing human SERT, racemic substrate, two minutes, net uptake minus empty vector control) was 328 µM. The “Clint ± SEM” value (DAT) was 17.2 mL × g Protein^−1 × min^−1, the “Stereoselectivity Vmax” value (DAT) was 1.56 fold and the “Stereoselectivity Km” value (DAT; given as for (R) or for 1 (first-eluting)) was 1.06 fold. The “Vmax ± SEM” value (DAT; HEK293 cells overexpressing human DAT, racemic substrate, two minutes, net uptake) was 613 pmol × mg Protein^−1 × min^−1, the selectivity ratio at 2 min (DAT) was 1.48 and the Km (DAT; read-out: Km ± SEM, HEK293 cells overexpressing human DAT, racemic substrate, two minutes, net uptake minus empty vector control) was 35.6 µM. The “Clint ± SEM” value (OCT2) was 29.5 mL × g Protein^−1 × min^−1, the selectivity ratio at 2 min (OCT2; [6]) was 1.02 and the selectivity ratio at 2 min (OCT2; [7]) was 1.89. For the same compound, the selectivity ratio at 2 min (OCT2; [8]) was 2.04, the “Vmax ± SEM” value (NET; HEK293 cells overexpressing human NET, racemic substrate, two minutes, net uptake) was 392 pmol × mg Protein^−1 × min^−1 and the “Clint ± SEM” value (NET; NET) was 75.5 mL × g Protein^−1 × min^−1. The “Stereoselectivity Vmax” value (NET; NET, ratio between enantiomers) was 1.79 fold, the selectivity ratio at 2 min (NET) was 1.43 and the Km (NET; read-out: Km ± SEM, HEK293 cells overexpressing human NET, racemic substrate, two minutes, net uptake minus empty vector control) was 5.12 µM. For the same compound, the selectivity ratio at 2 min, 100 μM ([2]; given as for WT) was 1.27, the “Clint ± SEM” value (OCT3) was 11.8 mL × g Protein^−1 × min^−1 and the “Stereoselectivity Vmax” value (OCT3) was 3.33 fold. For the same compound, the “Stereoselectivity Km” value (OCT3) was 1.19 fold, the selectivity ratio at 2 min (OCT3) was 2.79 and the selectivity ratio (SERT [3]) was 2.82.
CNCC(O)c1ccccc1 (centres unmarked) [Halostachine] gave a selectivity ratio at 2 min, 100 μM (OCT2 (wild-type)) of 1.42 and a selectivity ratio at 2 min, 100 μM (OCT2 A270S variant; given as for (R)) of 1.32.
NCC(O)c1ccccc1 (centres unmarked) [Bisnorephedrine] showed a selectivity ratio at 2 min, 100 μM (OCT2 (wild-type)) of 1.1 and a selectivity ratio at 2 min, 100 μM (OCT2 A270S variant; given as for (S)) of 1.09.
For CNCC(O)c1ccccc1 (centres unmarked) [Halostachine-1, Halostachine], the Saturable net uptake (OCT1; OCT1) was “No saturable net uptake”, the Saturable net uptake (SERT [1]; SERT) was “No saturable net uptake” and the Saturable net uptake (DAT) was “No saturable net uptake”. For the same compound, the “Clint ± SEM” value (OCT2) was 25.7 mL × g Protein^−1 × min^−1, the selectivity ratio at 2 min (OCT2; Stereoselectivity ClInt, given as for (R) or for 1) was 1.89 and the selectivity ratio at 2 min (OCT2; Stereoselectivity Km, given as for (S) or for 2 (second-eluting)) was 1.5. For the same compound, the selectivity ratio at 2 min (OCT2; [8]) was 1.26, the Saturable net uptake (NET; NET) was “No saturable net uptake” and the selectivity ratio at 2 min, 100 μM ([2]; given as for WT) was 1.02. For the same compound, the Saturable net uptake (OCT3) was “No saturable net uptake”.
